Data on 6 compounds can be found in patent US7521439B2, “Glucocorticoid receptor ligands for the treatment of metabolic disorders” (Karo Bio AB, priority 2002, dated 2009).

Where two headings read alike, the source gives them in different places.

Data set [1] has as its target T1, Human glucocorticoid receptors (hGR) (Homo sapiens, UniProt P04150).
T1 construct: made in house; host or cells: Sf9 insect cells, baculovirus (BAC-TO-BAC)
T1 sequence (P04150 1-777): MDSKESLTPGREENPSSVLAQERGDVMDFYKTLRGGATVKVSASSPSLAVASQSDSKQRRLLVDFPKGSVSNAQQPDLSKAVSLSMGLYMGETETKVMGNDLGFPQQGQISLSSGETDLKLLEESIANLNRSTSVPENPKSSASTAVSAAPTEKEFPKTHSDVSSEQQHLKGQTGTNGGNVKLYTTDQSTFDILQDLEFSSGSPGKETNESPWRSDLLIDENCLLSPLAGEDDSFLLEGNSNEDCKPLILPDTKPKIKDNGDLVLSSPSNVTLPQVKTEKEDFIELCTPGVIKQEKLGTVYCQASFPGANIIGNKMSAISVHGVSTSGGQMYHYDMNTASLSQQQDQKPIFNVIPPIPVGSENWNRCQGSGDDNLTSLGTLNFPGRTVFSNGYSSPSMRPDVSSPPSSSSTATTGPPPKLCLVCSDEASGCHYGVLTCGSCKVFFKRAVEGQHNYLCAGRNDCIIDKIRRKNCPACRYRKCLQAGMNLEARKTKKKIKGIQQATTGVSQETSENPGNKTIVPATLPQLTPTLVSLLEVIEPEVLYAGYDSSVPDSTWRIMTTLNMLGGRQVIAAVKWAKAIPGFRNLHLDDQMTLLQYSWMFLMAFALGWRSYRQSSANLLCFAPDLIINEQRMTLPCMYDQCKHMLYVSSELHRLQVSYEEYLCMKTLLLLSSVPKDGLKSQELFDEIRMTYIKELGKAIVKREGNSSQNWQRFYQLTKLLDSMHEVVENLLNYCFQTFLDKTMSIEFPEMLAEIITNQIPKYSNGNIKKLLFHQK
Description: Radioligand filter binding assay, displacement of 3(H)-dexamethasone from human glucocorticoid receptor. From the text:
Methods for Radioligand Binding Studies with Human Glucocorticoid and Progesterone Receptor Cytosol
Dexamethasone hereafter referred to as dex was purchased from SIGMA. […] Human glucocorticoid receptors were extracted from Sf9 cells infected with a recombinant baculovirus transfer vector containing the cloned hGR genes. Recombinant baculovirus was generated utilizing the BAC-TO-BAC expression system (Life Technologies) in accordance to instruction from the supplier. The hGR coding sequences were cloned into a baculovirus transfer vector by standard techniques. The recombinant baculoviruses expressing hGR were amplified and used to infect Sf9 cells. Infected cells were harvested 48 hrs post infection. […] The concentration of hGR in the extract was measured as specific ^3(H)-dex binding with the G25-assay as described in J. Steroid Biochem. Molec. […] The extract was aliquoted and stored at −70° C.
The filter binding assay: Dilution series of the test compounds and dexamethasone as reference were made from 10 mM (1 mM dex) stock solutions in DMSO. 10 μl of the dilutions was added in duplicates to the wells. The cell extracts were diluted 10 fold in EPMo+MTG buffer (1 mM EDTA, HPO4 20 mM (pH8), 6 mM MTG). […] 110μl of the diluted ^3(H)-dex were added to the wells. The final concentration of hGR in the experiment was estimated to 1 nM. All preparations were made in […] on ice and with +4° C. temperated buffers. The plates were incubated overnight at +4° C. (15-20 hrs.).
The incubation was stopped by filtration through GF/B filter on the Tomtec Cellharvester. The filtration on the Tomtec Cellharvester was programmed as follows: 1) Preparation before filtration with EP buffer (1 mM EDTA 20 mM HPO4 (pH8)) 2×(Wash/Asp 0.6 sec., Asp 0.5 sec.); 2) Prewet of GF/B filter with EP+PEI buffer (EP buffer, 0.3% Polyethylenimine) (Asp 0.8 sec.); 3) Filtration/harvesting of the 96-well incubation plate 3×(Wash/Asp 0.6 sec., Asp 0.5 sec.). The GF/B filter was dried for at least 1 hr at 65° C. A MeltiLex scintillation wax was melted onto the filter with the Microsealer. The filter was placed in a samplebag, which was thereafter trimmed with scissors to fit the filter cassette. The cassette were placed in the Microbeta and measured for 1 min/position, returning ccpm (corrected counts per minute).
The Microbeta-instrument generates the mean cpm (counts per minute) value/minute and corrects for individual variations between the detectors thus generating corrected cpm values.

In data set [2] the target is T2, progesterone receptor (PR) (Homo sapiens, UniProt P06401).
T2 sequence (P06401 1-933): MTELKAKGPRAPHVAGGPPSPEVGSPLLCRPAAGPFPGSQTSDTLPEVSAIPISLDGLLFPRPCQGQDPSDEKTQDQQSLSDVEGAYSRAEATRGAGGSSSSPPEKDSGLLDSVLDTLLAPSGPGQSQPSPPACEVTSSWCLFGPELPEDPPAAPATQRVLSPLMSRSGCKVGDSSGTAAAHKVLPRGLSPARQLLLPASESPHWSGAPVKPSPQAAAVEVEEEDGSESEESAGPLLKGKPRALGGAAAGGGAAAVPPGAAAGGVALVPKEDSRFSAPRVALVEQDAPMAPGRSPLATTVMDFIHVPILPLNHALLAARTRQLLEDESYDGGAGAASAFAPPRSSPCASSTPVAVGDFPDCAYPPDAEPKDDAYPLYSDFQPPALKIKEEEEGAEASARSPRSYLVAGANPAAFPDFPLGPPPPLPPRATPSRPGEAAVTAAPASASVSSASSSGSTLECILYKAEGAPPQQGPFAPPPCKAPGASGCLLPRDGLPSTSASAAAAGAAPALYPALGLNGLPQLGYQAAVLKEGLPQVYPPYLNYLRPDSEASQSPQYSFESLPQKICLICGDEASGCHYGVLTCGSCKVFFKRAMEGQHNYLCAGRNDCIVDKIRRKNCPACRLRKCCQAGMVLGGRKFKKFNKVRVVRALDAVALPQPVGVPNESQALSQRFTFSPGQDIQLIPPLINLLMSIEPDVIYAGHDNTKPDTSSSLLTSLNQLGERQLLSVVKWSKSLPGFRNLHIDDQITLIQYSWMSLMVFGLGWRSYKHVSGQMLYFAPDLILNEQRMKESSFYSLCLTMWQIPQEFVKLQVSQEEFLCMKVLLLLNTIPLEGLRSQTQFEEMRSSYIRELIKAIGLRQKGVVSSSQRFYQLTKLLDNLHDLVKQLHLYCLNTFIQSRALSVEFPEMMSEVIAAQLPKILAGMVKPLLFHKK
Briefly: Radioligand binding assay for progesterone receptor (similar protocol). Particulars: similar protocol to GR binding. An excerpt: Methods for Radioligand Binding Studies with Human Glucocorticoid and Progesterone Receptor Cytosol A similar protocol was employed to measure affinity of the compounds of the present invention for progesterone receptor (PR).

The subject of data set [3] is GR-mediated responses. Briefly: Rat prednisolone challenge model (hepatic TAT, hepatic glycogen, blood lymphocytes). The class given is in vivo. The settings on record: for inhibition at 100 mg/kg: Rattus norvegicus, Lymphocyte, po, 100 mpk orally in rats, prednisolone challenge. An excerpt: The analysis of both in vivo activity and liver selectivity may be accomplished using a single pharmacology study, involving a prednisolone challenge administered to rats.
Systemic glucocorticoid activity leads to an anti-inflammatory response, which is the result of a GR-linked suppression of lymphocytic activity.
Rat Prednisolone Challenge Model for Evaluation of Liver-Targeted Glucocorticoid Receptor Antagonists
Six hours following the prednisolone challenge, rats are euthanized with CO2, and bled via cardiac puncture for evaluation of blood lymphocytes and plasma drug levels. 7 mm liver biopsy punches are harvested for evaluation of tyrosine aminotransferase (TAT), hepatic glycogen and GR antagonist levels. Additional liver tissue, retroperitoneal fat, skeletal muscle, kidney and skin from an ear biopsy are also removed for isolation an evaluation of mRNA.

For data set [4], the system named is HPA axis. Description: Mouse hypothalamic-pituitary-adrenal (HPA) activation model. In kind it is in vivo. Particulars: for circulating level of ACTH / circulating level of corticosterone: oral dose, normal mice (FIG. 3). From the text:
Hypothalamic stimulation triggered by a suppressed systemic glucocorticoid leads to the secretion of adrenocorticotrophic hormone (ACTH) by the pituitary gland. ACTH acts on the adrenal gland to stimulate the production of endogenous glucorticoids like cortisol (in man) or corticosterone (in rodents). […] Analogs like Compound 1 may thus have an improved efficacy and safety profile for the treatment of metabolic diseases like diabetes and obesity.
Mouse Hypothalamic-Pituitary-Adrenal (HPA) Activation Model
Non-fasted CD-1 male mice, weighing approximately 25 g, are dosed with vehicle, RU-486 (30-100 mg/kg), or GR antagonist (30-100 mg/kg) at 0800 hr when corticosterone levels are low. Two hours later, mice are euthanized with CO2, bled by cardiac puncture, and plasma analyzed for corticosterone by mass spectroscopy and for adrenocorticotropic hormone (ACTH) levels by ELISA. Brains and plasma are also removed for analysis of GR antagonist levels.

[5] abbreviates: 10 mpk prednisolone, normal rats, 7-hour experiment.
[6] abbreviates: 30 mpk orally, rat prednisolone challenge.
Where [7] appears, read: read-out: Inhibition of GR-mediated responses: Glycogen.
Setting [8] is: read-out: Inhibition of GR-mediated responses: Lymphocytes.
Where [9] appears, read: read-out: Inhibition of GR-mediated responses: TAT.
Where [10] appears, read: rat prednisolone challenge, 100 mpk.
The mark [11] stands for this setting: 100 mpk, CD-1 male mice, two hours after dosing.

As a reminder, the IC50 is the midpoint of a concentration-inhibition curve. Regarding `CC#C[C@]1(O)[C@H](C)C[C@H]2[C@@H]3CCC4=CC(=O)CCC4=C3[C@@H](c3ccc(N(C)CCO[C@H]4CC[C@@]5(C)[C@@H](C4)C[C@@H](O)[C@@H]4[C@@H]5C[C@H](O)[C@]5(C)[C@@H]([C@H](C)CCC(=O)O)CC[C@@H]45)cc3)C[C@@]21C` [Example 4, (3β,5β,7α,12α)-7,12-Dihydroxy-3-{2-[{4-[17β-hydroxy-16α-methyl-3-oxo17α-prop-1-ynylestra-4,9-dien-11β-yl]phenyl}(methyl)amino]ethoxy}cholan-24-oic acid], the IC50 in data set [1] (3(H)-dex displacement, hGR extract from Sf9 cells, read-out: GR Binding (IC50)) amounted to 3.3 nM; in data set [2], 1.6 nM.

For the compound `CC#C[C@]1(O)CC[C@H]2[C@@H]3CCC4=CC(=O)CCC4=C3[C@@H](c3ccc(OCCO[C@H]4CC[C@@]5(C)C(C4)C[C@@H](O)[C@H]4[C@@H]6CC[C@H]([C@H](C)CCC(=O)O)[C@@]6(C)[C@@H](O)C[C@@H]45)c(C)c3)C[C@@]21C` (stereo partly drawn) [Example 2, (3β,7α,12α)-7,12-dihydroxy-3-(2-(4-(17β-hydroxy-3-oxo-17α-prop-1-ynylestra-4,9-dien-11β-yl)-2-methylphenoxy)ethoxy)cholan-24-oic acid], the IC50 in data set [1] amounted to 2.8 nM; in data set [2], 2.3 nM.

`C[C@]12C=CC(=O)C=C1CC[C@@H]1[C@@H]2[C@@H](O)C[C@@]2(C)[C@H]1CC[C@]2(O)C(=O)CO` [prednisolone]: the circulating lymphocyte levels result in data set [3] (10 mpk prednisolone, normal rats) is reported as “decrease”. In data set [3] (setting [5]), the “increase in the deposition of hepatic glycogen” value is roughly 60% and the “induction of tyrosine aminotransferase (TAT)” value is recorded as 3 fold.

The term inhibition denotes the relative decrease from the control value, in per cent. Consider `CC#C[C@]1(O)CC[C@H]2[C@@H]3CCC4=CC(=O)CCC4=C3[C@@H](c3ccc(N(C)C)cc3)C[C@@]21C` [RU-38486], for which, in data set [3] (setting [6]), the “block of agonist effect on TAT induction” value is “completely blocks”, the “block of lymphopenic response produced by prednisolone” value is “ability to block” and the “suppression of prednisolone-induced deposition of hepatic glycogen” value is reported as “completely suppressed”. In addition, the inhibition at 100 mg/kg in data set [3] (setting [7]) was determined as 74%. In addition, in data set [3] (setting [8]), the inhibition at 100 mg/kg turned out to be 108%. Moreover, the inhibition at 100 mg/kg in data set [3] (setting [9]) worked out at 100%. In data set [3] (setting [10]), the “block of hepatic glucocorticoid responses to prednisolone (TAT, glycogen)” value is on record as “completely antagonizes” and the “effect on systemic (peripheral) glucocorticoid response to prednisolone” value is listed as “completely antagonizes”. In data set [4] (setting [11]), the “ACTH level compared to vehicle controls” value is “significantly increases” and the “corticosterone level compared to vehicle controls” value is “significantly increases”. Further, in data set [4], the “circulating level of ACTH” value is reported as “increases” and the “circulating level of corticosterone” value was “increases”.

In the case of `CC#C[C@]1(O)CC[C@H]2[C@@H]3CCC4=CC(=O)CCC4=C3[C@@H](c3ccc(N(C)CCO[C@H]4CC[C@@]5(C)[C@@H](C4)C[C@@H](O)[C@@H]4[C@@H]5C[C@H](O)[C@]5(C)[C@@H]([C@H](C)CCC(=O)O)CC[C@@H]45)c(F)c3)C[C@@]21C` [Example 3, (3β,5β,7α,12α)-7,12-dihydroxy-3-{2-[{4-[17β-hydroxy-3-oxo-17α-prop-1-ynylestra-4,9-dien-11β-yl]-2-fluorophenyl}(methyl)amino]ethoxy}cholan-24-oic acid], the IC50 came out at 2 nM in data set [1] and 4.5 nM in data set [2].

As to `CC#C[C@]1(O)CC[C@H]2[C@@H]3CCC4=CC(=O)CCC4=C3[C@@H](c3ccc(N(C)CCO[C@H]4CC[C@@]5(C)[C@@H](C4)C[C@@H](O)[C@@H]4[C@@H]5C[C@H](O)[C@]5(C)[C@@H]([C@H](C)CCC(=O)O)CC[C@@H]45)cc3)C[C@@]21C` [Example 1, (3β,5β,7α,12α)-7,12-Dihydroxy-3-{2-[{4-[17β-hydroxy-3-oxo-17α-prop-1-ynylestra-4,9-dien-11β-yl]phenyl}(methyl)amino]ethoxy}cholan-24-oic acid], the inhibition at 100 mg/kg in data set [3] (setting [7]) came out at 111%; in data set [3] (setting [8]), 35%; in data set [3] (setting [9]), 85%. Also, the “selectivity for hepatic GR vs. systemic effects” value in data set [3] (rat prednisolone challenge, doses as in Table I) is recorded as “liver-selective pharmacology”. In addition, the “stimulation of the HPA axis” value in data set [4] (mice, dose similar to RU-38486 (FIG. 3)) is recorded as “fails to stimulate”. The “circulating level of ACTH” value in data set [4] was “lack of change”. For the same compound, the “circulating level of corticosterone” value in data set [4] is listed as “lack of change”. For the same compound, the results for the IC50 in data set [1] and in data set [2] were 3.6 nM and 8.7 nM, respectively.
